Assay results from patent US20240180989A1, “LIGUSTRUM LUCIDUM EXTRACT USEFUL FOR THE TREATMENT AND/OR CARE OF THE SKIN” (Lubrizol Advanced Materials, Inc., priority 2021, published 2024).

Legend:
[1] = system: peroxynitrite production in Human epidermal keratinocytes (HEK); experiment: Quantification of peroxynitrite production in human epidermal keratinocytes; assay type: cell-based; details: 1 hour, per cell
Description: Human epidermal keratinocytes (HEK) are seeded in 96-well plates at a density of 3×10^4 cells/well in keratinocyte growth medium supplemented with Mix C39016-CaCl2 solution (Promocell). After 24 hours incubation, medium is replaced with fresh culture medium with scalar dilutions of the subcritical water extract at 160° C. of Example 2. Treatment is continued for 24 hours and cells treated with medium alone are used as basal control. After 24 hours incubation, peroxynitrite production is measured by a fluorescence approach with Peroxynitrite assay kit (Abcam) following the manufacturer's instructions. In brief, cells are treated with 10 μl/well sensor green working solution during 1 hour in the medium. Cells treated with SIN-1 (Sigma) 11 mM or 5.76 mM during 1 hour in combination with sensor green solution are used as a positive control of peroxynitrite production. SIN-1 (Sigma) is a nitric oxide donor. After 1-hour incubation, fluorescence is measured with an […] microplate reader (Clariostar, BMG) at excitation 490 nm and emission 530 nm. […] Cell nuclei number is determined with a confocal microscopy Operetta (PerkinElmer). Peroxynitrite fluorescence intensity is normalized to cell number for each condition.
The results in Table 8 are expressed as a percentage of peroxynitrite per cell normalized by basal condition.

[2] = system: arginase; experiment: Arginase activity reduction in human epidermal keratinocytes (colorimetric Arginase Activity kit); assay type: cell-based; details: 1 mM, donor
Description: Human epidermal keratinocytes (HEK) of donor (Tebu Bio), donor (Promocell) and donor (Promocell) are seeded in 6-well plates at a density of 3×10^5 cells/well in keratinocyte growth medium supplemented with Mix C39016-CaCl2 solution (Promocell). […] The donor's cells treated with S-(2-Boronoethyl)-L-cysteine hydrochloride (BEC, Sigma) 1 mM are used as positive control of arginase inhibition, and the donor's, donor's and 26-year-old donor's cells treated with medium alone are used as basal control of arginase activity at different ages. Treatment is continued for 24 hours. After 24 hours, cells are lysed and are analyzed by a colorimetric Arginase Activity kit (Abcam) according to manufacturer's instructions. […] Absorbance is measured by using a microplate reader (Clariostar, BMG) set to 570 nm in a kinetic mode for 30 minutes. […] Arginase activity is calculated in the exponential phase of the kinetic for each sample with the following equation: AOD═(OD2−ODBG2)−(OD1−ODBG1); where: OD1 and OD2 is the sample reading at time T1 and T2 respectively, ODBG1 and ODBG2 is the sample background reading at time T1 and T2 respectively.
Total protein amount of each sample is determined using a Pierce BCA protein assay kit (Thermo fisher) according to the manufacturer's protocol. […] Afterwards, color change is measured with an absorbance microplate reader (Clariostar, BMG) at 562 nm. […]

Row | Structure (SMILES) | Peroxynitrite production MEAN respect basal condition ([1]; 5.76 mM) [%] | Peroxynitrite production MEAN respect basal condition ([1]; 11 mM) [%] | Arginase activity MEAN subtracting basal condition and normalizing respect basal condition of cells [2] [%] | Arginase activity MEAN respect basal condition of cells ([2]; 24 h) [%]
1 | [NH-]c1c[n+](N2CCOCC2)no1 [SIN-1] | 2379.00 | 1654.00 |  | 
2 | Cl.N[C@@H](CSCCB(O)O)C(=O)O [BEC, S-(2-Boronoethyl)-L-cysteine hydrochloride] |  |  | −10.58 | 70.10
